IC50 data for twelve compounds are collected here from ChEMBL document CHEMBL5131523, “Long-Awaited Small-Molecule Drug Candidate for Drugging the Next Undruggable KRASG12D Mutant in Cancer Therapy” (ACS Med Chem Lett, 2022).

The subject of this assay is BaF3. Kind of assay: Antiproliferative activity against mouse BaF3 cells harboring KRAS G12D mutant assessed as inhibition of cell proliferation incubated for 3 days by CellTiter-Glo assay. Conditions: BaF3, 72 h. Type of assay: toxicity, cell-based. A general note: ATP-based viability assays read luminescence as a measure of living cells.
Usually IC50 stands for the concentration that inhibits the measured activity by half. Turning to `Oc1cc(-c2nc(Cl)c3c(N4C[C@H]5CC[C@@H](C4)N5)nc(OC[C@@]45CCCN4C[C@H](F)C5)nc3c2F)c2ccccc2c1`, the IC50 is at most 500 nM. As for `Oc1cc(-c2nc(O)c3c(N4C[C@H]5CC[C@@H](C4)N5)nc(OC[C@@]45CCCN4C[C@H](F)C5)nc3c2F)c2c(Cl)c(F)ccc2c1`, the IC50 was 500 nM.

On to `C#Cc1c(F)ccc2cc(O)cc(-c3nc(OCC(F)F)c4c(N5C[C@H]6CC[C@@H](C5)N6)nc(OC[C@@]56CCCN5C[C@H](F)C6)nc4c3F)c12`, for which the IC50 was at most 500 nM.

In the case of `C#Cc1c(F)ccc2cc(O)cc(-c3nc(OC(F)F)c4c(N5C[C@H]6CC[C@@H](C5)N6)nc(OC[C@@]56CCCN5C[C@H](F)C6)nc4c3F)c12`, the IC50 is at most 500 nM. As for `CCOc1nc(-c2cc(O)cc3ccc(F)c(Cl)c23)c(F)c2nc(OC[C@@]34CCCN3C[C@H](F)C4)nc(N3C[C@H]4CC[C@@H](C3)N4)c12`, the figure is at most 500 nM; as for `C#Cc1c(F)ccc2cc(O)cc(-c3nc(OC(C)C)c4c(N5C[C@H]6CC[C@@H](C5)N6)nc(OC[C@@]56CCCN5C[C@H](F)C6)nc4c3F)c12`, at most 500 nM. On to `C#Cc1c(F)ccc2cc(O)cc(-c3nc(OC(C)C)c4c(N5C[C@H]6CC[C@@H](C5)N6)nc(C(F)F)nc4c3F)c12`, for which the IC50 was at most 500 nM. As for `C#Cc1c(F)ccc2cc(O)cc(-c3nc(OC(C)C)c4c(N5C[C@H]6CC[C@@H](C5)N6)nc(NC)nc4c3F)c12`, the IC50 was 500 nM. With `Fc1c(-c2cccc3cccc(Cl)c23)ncc2c(N3C[C@H]4CC[C@@H](C3)N4)nc(OCC34CCCN3CCC4)nc12`, the IC50 was at most 500 nM. As to `C#Cc1c(F)ccc2cc(O)cc(-c3nc(OCC)c4c(N5CCNC6(CCC6)C5)nc(OC[C@@]56CCCN5C[C@H](F)C6)nc4c3F)c12`, the IC50 was at most 500 nM. As for `Cc1nc(-c2cc(O)cc3cccc(Cl)c23)c(F)c2nc(OC[C@@]34CCCN3C[C@H](F)C4)nc(N3C[C@H]4CC[C@@H](C3)N4)c12`, the IC50 is at most 500 nM. With `Cc1cccc2cc(O)cc(-c3nc(C)c4c(N5C[C@H]6CC[C@@H](C5)N6)nc(OC[C@@]56CCCN5C[C@H](F)C6)nc4c3F)c12`, the IC50 was at most 500 nM.
